In US20240409557A1, “5,6-FUSED AND 6,6-FUSED BICYCLIC ALCOHOLS AND ETHERS AND COMPOSITIONS FOR USE AS 15-PROSTAGLANDIN DEHYDROGENASE MODULATORS” (AMGEN INC., priority 2023, published 2024):

Experiments:
15-PGDH in A549 cells = biological target: T1, 15-PGDH in A549 cells (Homo sapiens, UniProt P15428); assay: A549 cellular 15-PGDH assay (PGE2 accumulation, HTRF); format: cell-based; conditions: interleukin-stimulated, inhibitor 24 hrs, PGE2 by competitive HTRF, read-out: A549 Cell Assay IC50
T1 construct: endogenous in cells; host or cells: A549
T1 sequence (P15428 1-266): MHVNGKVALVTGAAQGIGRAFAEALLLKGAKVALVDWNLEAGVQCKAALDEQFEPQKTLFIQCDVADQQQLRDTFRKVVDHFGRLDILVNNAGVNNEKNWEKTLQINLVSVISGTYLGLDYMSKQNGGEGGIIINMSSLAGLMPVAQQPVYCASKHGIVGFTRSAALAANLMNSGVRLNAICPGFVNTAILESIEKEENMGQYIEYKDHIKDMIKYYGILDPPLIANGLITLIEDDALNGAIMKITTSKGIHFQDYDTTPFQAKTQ
From the text: This assay was used for the quantification of IL-13 induced Native Prostaglandin E2 (PGE2) produced by A549 cells (epithelial cells from lung carcinoma) in cell culture supernatants. […] PGE2 was detected in a competitive HTRF assay by using anti PGE2 antibody labeled with Europium cryptate, and PGE2 labeled with […]. The PGE2 present in the sample competes with the binding between the two HTRF detection solutions (reagents) and thereby prevents FRET from occurring. The specific signal is inversely proportional to the PGE2 concentration. From this binding data, IC50 values were calculated.

[1] = biological target: T2, human recombinant 15-PGDH (Homo sapiens, UniProt P15428); assay: Recombinant 15-PGDH enzymatic inhibition assay (PGDH-Lumi, NADH signal); format: biochemical; conditions: recombinant 15-PGDH; 15 min pre-incubation, 60 min reaction with PGE2 and NAD+, NADH signal
T2 sequence (P15428 1-266): T1 sequence (P15428 1-266)
Method in brief: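 Recombinant 15-PGDH pre-incubated 15 min at room temperature with compound (22 concentrations, 2-fold dilutions) in 50 mM Tris pH 7.5, 0.01% Tween-20, […].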

| SMILES | IC50 (15-PGDH in A549 cells) [nM] | IC50 [1] [nM] |
| --- | --- | --- |
| CC(C)n1cc2cc(-c3ccc4cc(C(O)C5CC(F)(F)C5)sc4n3)ccc2n1 (stereo not drawn) [Compound B56, (3,3-difluorocyclobutyl)(6-(2-(2-propanyl)-2H-indazol-5-yl)thieno[2,3-b]pyridin-2-yl)methanol] | 3.22 | 1.15 |
| Cc1cn2ncc(-c3ccc4cc([C@]5(O)C[C@@H](C(F)F)C5)sc4n3)cc2n1 [Compound C92C, cis-3-(difluoromethyl)-1-(6-(2-methylimidazo[1,2-b]pyridazin-7-yl)thieno[2,3-b]pyridin-2-yl)cyclobutanol] | 5.27 | 1.46 |
| Cn1cc2cc(-c3ccc4cc(C(O)C5COC5)sc4n3)cnc2n1 (stereo not drawn) [Compound B28, (6-(2-methyl-2H-pyrazolo[3,4-b]pyridin-5-yl)thieno[2,3-b]pyridin-2-yl)(oxetan-3-yl)methanol] | 1.07 | 0.463 |
| C[C@H]1CC[C@]1(O)c1cc2ccc(-c3cnc4nn(C)cc4c3)nc2s1 (single isomer, unassigned) [Compound C64RS] | 3.25 | 20.9 |
| CO[C@]1(C)C[C@@](O)(c2cc3ccc(-c4cnc5c(c4)nnn5C)nc3s2)C1 (single isomer, unassigned) [Compound C102C, cis-3-methoxy-3-methyl-1-(6-(3-methyl-3H-[1,2,3]triazolo[4,5-b]pyridin-6-yl)thieno[2,3-b]pyridin-2-yl)cyclobutanol] | 2.53 | 0.971 |
| Cn1cc2cc(-c3ccc4cc(C5(O)CC5)sc4n3)cnc2n1 [Compound C60, 1-(6-(2-methyl-2H-pyrazolo[3,4-b]pyridin-5-yl)thieno[2,3-b]pyridin-2-yl)cyclopropanol] | 26.7 | 52.1 |
| Cn1cc2cc(-c3ccc4nc([C@]5(O)C[C@@]6(CC6(F)F)C5)sc4n3)cnc2n1 (single isomer, unassigned) [Compound C115T, trans-1,1-difluoro-5-(5-(2-methyl-2H-pyrazolo[3,4-b]pyridin-5-yl)[1,3]thiazolo[5,4-b]pyridin-2-yl)spiro[2.3]hexan-5-ol] | 1.39 | 0.513 |
| Cn1cc2cc(-c3ccc4cc(C5(O)CC(C)(C)C5)sc4n3)cnc2n1 [Compound C26, 3,3-dimethyl-1-(6-(2-methyl-2H-pyrazolo[3,4-b]pyridin-5-yl)thieno[2,3-b]pyridin-2-yl)cyclobutanol] | 0.0601 | 0.273 |
| Cn1cc2cc(-c3ccc4cc([C@H](O)C5(C)CC(F)(F)C5)sc4n3)cnc2n1 (single isomer, unassigned) [Compound B86R] | 0.499 | 0.504 |
| CC(O)c1cc2c(-c3ccnn3C)cc(-c3cnc4nn(C)cc4c3)nc2s1 (stereo not drawn) [Compound B6, 1-(4-(1-methyl-1H-pyrazol-5-yl)-6-(2-methyl-2H-pyrazolo[3,4-b]pyridin-5-yl)thieno[2,3-b]pyridin-2-yl)ethan-1-ol] | 39.4 | 2.93 |
| CO[C@]1(C(F)(F)F)C[C@](O)(c2cc3ccc(-c4cnc5nn(C)cc5c4)nc3s2)C1 (single isomer, unassigned) [Compound C66T, trans-3-methoxy-1-(6-(2-methyl-2H-pyrazolo[3,4-b]pyridin-5-yl)thieno[2,3-b]pyridin-2-yl)-3-(trifluoromethyl)cyclobutanol] | 0.0223 | 0.47 |
| CO[C@@H]1CC[C@@]1(O)c1cc2ccc(-c3cnc4nn(C)cc4c3)nc2s1 (single isomer, unassigned) [Compound C70SR] | 172 | 2260 |
| CC(C)n1cc2cc(-c3ccc4cc([C@@H](O)C5CC(F)(F)C5)sc4n3)cnc2n1 (single isomer, unassigned) [Compound B64S] | 0.483 | 0.597 |
| Cc1c([C@@H](O)C2CCOCC2)sc2nc(-c3cnc4nn(C)cc4c3)ccc12 (single isomer, unassigned) [Compound B90S] | 237 | 488 |
| Cn1cc2cc(-c3ccc4cc([C@@H](O)C5CC(F)(F)C5)ccc4n3)cnc2n1 (single isomer, unassigned) [Compound D7S] | 168 | 265 |
| Cn1cc2cc(-c3ccc4cc([C@@H](O)[C@H]5C[C@@H](C(F)(F)F)C5)sc4n3)cnc2n1 (single isomer, unassigned) [Compound B84SC] | 1.45 | 1.53 |
| Cn1cc2cc(-c3ccc4cc([C@H](O)C56CC(C(F)(F)F)(C5)C6)sc4n3)cnc2n1 (single isomer, unassigned) [Compound B91R] | 1.09 | 0.544 |

| SMILES | IC50 (15-PGDH in A549 cells) [nM] | IC50 [1] [nM] |
| --- | --- | --- |
| CC(C)n1ncc2cc(-c3ccc4cc(C(O)C5CC(F)(F)C5)sc4n3)cnc21 (stereo not drawn) [Compound B65, (3,3-difluorocyclobutyl)(6-(1-(2-propanyl)-1H-pyrazolo[3,4-b]pyridin-5-yl)thieno[2,3-b]pyridin-2-yl)methanol] | 0.437 | 0.944 |
| Cn1cc2cc(-c3ccc4nc([C@]5(O)C[C@]6(CC6(F)F)C5)sc4n3)cnc2n1 (single isomer, unassigned) [Compound C115C, cis-1,1-difluoro-5-(5-(2-methyl-2H-pyrazolo[3,4-b]pyridin-5-yl)[1,3]thiazolo[5,4-b]pyridin-2-yl)spiro[2.3]hexan-5-ol] | 0.978 | 0.393 |
| Cn1cc2cc(-c3ccc4ccc([C@H](O)C5CC(F)(F)C5)cc4n3)cnc2n1 (single isomer, unassigned) [Compound D1R] | 0.0822 | 0.605 |
| Cc1c2ccc(-c3cnc4nn(C)cc4c3)nc2sc1[C@]1(O)C[C@@H](C(F)(F)F)C1 [Compound C78C, cis-1-(3-methyl-6-(2-methyl-2H-pyrazolo[3,4-b]pyridin-5-yl)thieno[2,3-b]pyridin-2-yl)-3-(trifluoromethyl)cyclobutanol] | 2.42 | 1.03 |
| Cc1cn2ncc(-c3ccc4cc(C5(O)CC(F)(F)C5)sc4n3)cc2n1 [Compound C54, 3,3-difluoro-1-(6-(2-methylimidazo[1,2-b]pyridazin-7-yl)thieno[2,3-b]pyridin-2-yl)cyclobutanol] | 3.06 | 3.51 |
| Cn1nnc2cc(-c3ncc4cc([C@]5(O)C[C@](C)(C#N)C5)sc4n3)cnc21 (single isomer, unassigned) [Compound C98T, trans-3-hydroxy-1-methyl-3-(2-(3-methyl-3H-[1,2,3]triazolo[4,5-b]pyridin-6-yl)thieno[2,3-d]pyrimidin-6-yl)cyclobutanecarbonitrile] | 2.66 | 1.73 |
| OC1(c2cc3ccc(-c4cnc5[nH]ncc5c4)nc3s2)CC(F)(F)C1 [Compound C36, 3,3-difluoro-1-(6-(1H-pyrazolo[3,4-b]pyridin-5-yl)thieno[2,3-b]pyridin-2-yl)cyclobutanol] | 0.348 | 0.756 |
| Cc1nc2ncc(-c3ccc4cc(C5(O)CC(F)(F)C5)sc4n3)cc2o1 [Compound C34, 3,3-difluoro-1-(6-(2-methyl[1,3]oxazolo[4,5-b]pyridin-6-yl)thieno[2,3-b]pyridin-2-yl)cyclobutanol] | 1.35 | 0.78 |
| CCn1cc2cc(-c3ccc4cc([C@@H](O)C5CC(F)(F)C5)sc4n3)cnc2n1 (single isomer, unassigned) [Compound B53S] | 0.288 | 0.436 |
| OC1(c2cc3ccc(-c4ccc5[nH]ncc5c4)nc3s2)CC(F)(F)C1 [Compound C42, 3,3-difluoro-1-(6-(1H-indazol-5-yl)thieno[2,3-b]pyridin-2-yl)cyclobutanol] | 6.81 | 23.8 |
| Cc1c([C@H](O)C2CC(F)(F)C2)sc2nc(-c3cnc4nn(C)cc4c3)ccc12 (single isomer, unassigned) [Compound B83R] | 0.0103 | 0.296 |
| Cn1cc2cc(-c3ccc4cc(C(O)C5CCC5)sc4n3)cnc2n1 (stereo not drawn) [Compound B18, cyclobutyl(6-(2-methyl-2H-pyrazolo[3,4-b]pyridin-5-yl)thieno[2,3-b]pyridin-2-yl)methanol] | 0.0918 | 0.382 |
| Cc1cn2ccc(-c3ccc4cc(C5(O)CC(F)(F)C5)sc4n3)cc2n1 [Compound C44, 3,3-difluoro-1-(6-(2-methylimidazo[1,2-a]pyridin-7-yl)thieno[2,3-b]pyridin-2-yl)cyclobutanol] | 6.17 | 7.56 |
| Cn1cc2cc(-c3ncc4cc([C@]5(O)C[C@@]6(CC6(F)F)C5)sc4n3)cnc2n1 (single isomer, unassigned) [Compound C114T, trans-1,1-difluoro-5-(2-(2-methyl-2H-pyrazolo[3,4-b]pyridin-5-yl)thieno[2,3-d]pyrimidin-6-yl)spiro[2.3]hexan-5-ol] | 0.669 | 0.488 |
| Cn1cc2cc(-c3ccc4sc([C@]5(O)C[C@@H](C(F)F)C5)cc4n3)cnc2n1 [Compound C84C, cis-3-(difluoromethyl)-1-(5-(2-methyl-2H-pyrazolo[3,4-b]pyridin-5-y1)thieno[3,2-b]pyridin-2-yl)cyclobutanol] | 13.2 | 7.79 |
| Cn1cc2cc(-c3ccc4ccc([C@@H](O)C5CC(F)(F)C5)cc4n3)cnc2n1 (single isomer, unassigned) [Compound D1S] | 0.656 | 1.17 |
